This is an account of results in patent US20260207717A1, “METHODS FOR TREATING INFANTILE-ONSET POMPE DISEASE IN PEDIATRIC PATIENTS” (Amicus Therapeutics, Inc., priority 2022, published 2026).

Like-named read-outs stand apart in the source and are kept apart here.

Data set [1] concerns pediatric patient with infantile Pompe disease. Description: Example 16: pediatric IOPD patient switched from Myozyme to ATB200/AT2221. In kind it is in vivo, human. An excerpt:
A patient with severe infantile Pompe disease presented. The patient underwent a comprehensive physical examination, measurement of GAA enzyme activity, genetic testing of the GAA gene and muscle biopsy to establish the diagnosis.
The patient received the high-dose enzyme replacement therapy with Myozyme after diagnosis. The patient responded very poorly to therapy. Due to rapidly progressing Pompe disease and inadequate response to therapy, the patient's survival was at risk. For the patient, the opportunity arose to receive the new ATB200/AT2221 ERT via a compassionate use/Expanded Access Program (EAP).
The index patient has regular measurement of the urinary Glc4-levels since the change of the ERT to ATB200. The Glc4-levels were determined by an established method from the Duke University. The analysis of Glc4 is standardized as a butyl-4-aminobenzoate derivative using [^13C6] Glc4 as the internal standard (IS). The measurement is performed as ultra-performance liquid chromatography-tandem mass spectrometry (UPLC-MS/MS). The Glc4-values are then normalized to creatinine.
The patient presented with IOPD at 6 months and was started on the standard dose of Myozyme (20 mg/kg/bi-weekly). Due to the inadequate response to therapy, the dose was doubled just one month after the start of therapy in form of a weekly administration of Myozyme. […] But the cardiological situation deteriorated progressively.
Therefore, just three months after initiation of therapy, the dose was again doubled to 40 mg/kg/weekly, so the patient received a total of four times the standard dose. With the intensification of ERT and cardiac therapy, the patient's condition initially stabilized. Nevertheless, over the next few months, the patient's general condition steadily deteriorated, and the patient decompensated, especially respiratory.
The patient was switched from Myozyme to ATB200/AT2221 after eight months of insufficient Myozyme therapy response. The patient was […] at the time of the therapy switch. The new therapy (via EAP) was initiated with the oral administration of 30 mg premedication AT2221 (Miglustat) one hour prior to enzyme administration. ATB200 was administered at a bi-weekly interval at a dosage of 20 mg/kg. In the further course of treatment, the dosage of premedication and ERT was repeatedly adjusted and optimized (see Table 22). Some actual dosages in Table 22 (e.g., 37 mg/kg and 34.5 mg/kg at 32 and 38 months, respectively) varied from the target dose (e.g., 30 mg/kg) to avoid waste of extra material left in vials.
The Gross Motor Function Measure 66 (GMFM 66) is used to quantify a patients' motor skills. The GMFM 66 is a worldwide standardized test developed and validated for children with cerebral palsy to measure the development of gross motor function over time. During testing 66 items are examined and a score from 0 to 100 points is possible.

In a further data set the target is CIMPR (Homo sapiens, UniProt P11717). The experiment in a line: CIMPR affinity chromatography (bound vs unbound rhGAA by GAA activity). In kind it is binding. The text has this: Multiple batches of the rhGAA according to the disclosure were produced in shake flasks and in perfusion bioreactors using CHO cell line GA-ATB200, the product of which is referred to as “ATB200.” Weak anion exchange (“WAX”) liquid chromatography was used to fractionate ATB200 rhGAA according to terminal phosphate and sialic acid. Elution profiles were generated by eluting the ERT with increasing amount of salt. The profiles were monitored by UV (A280 nm).
Sequence of CIMPR (P11717 41-2491, species assumed): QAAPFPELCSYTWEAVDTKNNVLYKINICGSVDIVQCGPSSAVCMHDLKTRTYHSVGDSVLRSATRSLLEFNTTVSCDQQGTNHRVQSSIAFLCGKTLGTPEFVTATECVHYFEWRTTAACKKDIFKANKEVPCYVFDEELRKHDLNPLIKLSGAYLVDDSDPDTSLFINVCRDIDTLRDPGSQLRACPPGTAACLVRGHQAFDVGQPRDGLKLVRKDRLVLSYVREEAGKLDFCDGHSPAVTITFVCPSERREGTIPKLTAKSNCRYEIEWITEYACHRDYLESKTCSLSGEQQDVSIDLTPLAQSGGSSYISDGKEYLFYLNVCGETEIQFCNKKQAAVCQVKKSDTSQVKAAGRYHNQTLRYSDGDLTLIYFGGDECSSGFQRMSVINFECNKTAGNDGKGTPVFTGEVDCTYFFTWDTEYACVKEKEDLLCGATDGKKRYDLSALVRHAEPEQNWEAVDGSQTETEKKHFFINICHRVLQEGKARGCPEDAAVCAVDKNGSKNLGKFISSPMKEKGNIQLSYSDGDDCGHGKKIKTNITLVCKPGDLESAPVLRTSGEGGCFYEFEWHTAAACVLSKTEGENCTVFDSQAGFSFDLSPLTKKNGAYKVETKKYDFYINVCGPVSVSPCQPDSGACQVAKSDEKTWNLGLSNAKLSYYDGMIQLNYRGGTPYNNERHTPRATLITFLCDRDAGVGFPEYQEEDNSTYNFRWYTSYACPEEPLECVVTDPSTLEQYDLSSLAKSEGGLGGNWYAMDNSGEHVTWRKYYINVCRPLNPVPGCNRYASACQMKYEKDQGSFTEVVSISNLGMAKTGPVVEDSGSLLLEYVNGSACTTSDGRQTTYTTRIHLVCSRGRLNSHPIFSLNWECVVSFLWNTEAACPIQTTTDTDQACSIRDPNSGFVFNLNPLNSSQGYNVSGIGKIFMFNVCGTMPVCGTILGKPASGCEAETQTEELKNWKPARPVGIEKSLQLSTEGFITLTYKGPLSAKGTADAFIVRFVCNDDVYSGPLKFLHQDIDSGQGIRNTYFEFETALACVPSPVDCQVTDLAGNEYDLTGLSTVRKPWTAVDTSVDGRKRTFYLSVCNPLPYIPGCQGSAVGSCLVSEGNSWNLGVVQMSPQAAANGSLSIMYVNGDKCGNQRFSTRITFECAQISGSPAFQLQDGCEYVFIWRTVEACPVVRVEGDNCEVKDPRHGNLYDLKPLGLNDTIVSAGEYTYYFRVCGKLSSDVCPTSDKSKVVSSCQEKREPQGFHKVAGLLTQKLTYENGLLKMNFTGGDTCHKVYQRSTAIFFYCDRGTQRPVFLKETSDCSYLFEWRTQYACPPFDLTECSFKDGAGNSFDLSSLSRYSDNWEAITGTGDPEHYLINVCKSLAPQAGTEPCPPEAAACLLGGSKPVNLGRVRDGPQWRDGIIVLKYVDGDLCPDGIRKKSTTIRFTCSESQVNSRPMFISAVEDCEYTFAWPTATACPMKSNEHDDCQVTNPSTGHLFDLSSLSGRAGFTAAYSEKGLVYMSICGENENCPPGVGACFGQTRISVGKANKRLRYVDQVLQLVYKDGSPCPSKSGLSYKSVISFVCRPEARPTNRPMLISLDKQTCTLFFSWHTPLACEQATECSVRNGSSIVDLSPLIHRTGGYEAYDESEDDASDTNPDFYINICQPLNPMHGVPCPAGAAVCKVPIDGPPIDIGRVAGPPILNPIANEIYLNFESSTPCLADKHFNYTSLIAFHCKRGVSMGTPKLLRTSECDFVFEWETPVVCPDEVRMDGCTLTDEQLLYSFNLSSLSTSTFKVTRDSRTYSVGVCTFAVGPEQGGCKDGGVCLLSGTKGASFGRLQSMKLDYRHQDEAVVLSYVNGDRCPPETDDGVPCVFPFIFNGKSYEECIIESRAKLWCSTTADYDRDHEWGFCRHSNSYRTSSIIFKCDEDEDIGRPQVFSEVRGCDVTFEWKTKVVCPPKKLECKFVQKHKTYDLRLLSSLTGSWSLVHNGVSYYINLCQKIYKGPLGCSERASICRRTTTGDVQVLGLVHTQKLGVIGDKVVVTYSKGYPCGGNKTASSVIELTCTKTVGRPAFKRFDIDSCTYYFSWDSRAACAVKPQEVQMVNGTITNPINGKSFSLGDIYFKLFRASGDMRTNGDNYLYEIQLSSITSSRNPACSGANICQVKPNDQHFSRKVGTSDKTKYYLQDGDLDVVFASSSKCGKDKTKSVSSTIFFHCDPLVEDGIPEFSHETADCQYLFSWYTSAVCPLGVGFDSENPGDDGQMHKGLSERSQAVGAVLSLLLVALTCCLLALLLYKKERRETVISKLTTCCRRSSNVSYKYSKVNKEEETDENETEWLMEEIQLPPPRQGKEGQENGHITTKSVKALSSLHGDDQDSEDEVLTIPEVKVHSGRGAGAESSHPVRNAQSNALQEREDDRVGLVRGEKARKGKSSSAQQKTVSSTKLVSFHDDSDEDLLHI
To evaluate the ability of the conventional rhGAAs in MYOZYME® and LUMIZYME® to interact with the CIMPR, the two conventional rhGAA preparations were injected onto a CIMPR affinity column (which binds rhGAA having M6P groups) and the flow through collected. The bound material was eluted with a free M6 gradient. Fractions were collected in 96-well plate and GAA activity assayed by 4MU-α-glucosidase substrate. The relative amounts of unbound (flow through) and bound (M6P eluted) rhGAA were determined based on GAA activity and reported as the fraction of total enzyme. […] Indeed, only 27% of the rhGAA in MYOZYME® and 22% of the rhGAA in LUMIZYME® contained M6P that can be productive to target it to the CIMPR on muscle cells.

Data set [2] concerns pediatric IOPD patient.
The subject of data set [3] is single fibers isolated from the white gastrocnemius of Gaa KO mice. Description: Single fiber analysis (LAMP1/LC3 co-immunofluorescence). In kind it is in vivo. The text has this:
FIG. 17 depicts co-immunofluorescent staining of LAMP1 (green) (see for example, “B”) and LC3 (red) (see, for example, “A”) in single fibers isolated from the white gastrocnemius of Gaa KO mice treated with a vehicle, alglucosidase alfa, or ATB200. “C” depicts clearance of autophagic debris and absence of enlarged lysosome. A minimum of 30 fibers were examined from each animal.
As a result, a significant portion of muscle fibers analyzed (36-60%) from ATB200-treated mice appeared normal or near-normal.

The subject of data set [4] is pediatric IOPD patient. In kind it is in vivo, human. The method, then: The patient, first-born of unrelated parents […]), was born at 37 weeks by an emergency delivery due to fetal heart failure. At birth, they were resuscitated and admitted to the NICU for invasive ventilatory assistance and circulation support.
Moreover, the patient presented with severe hypotonia, elevated serum CPK (1063 U/L) and BNP ([…], nv 0-100).
At 3 days of life, an extended newborn screening resulted positive for Pompe Disease (GAA activity in DBS 0.40 μM/L, nv>3). uGlc4 was elevated (71.2 mmol/mol creatinine, nv <16.3).
At 5 days of life, the patient was treated with alglucosidase alfa (Myozyme®). Simultaneously, an immunomodulation protocol with rituximab, ev immunoglobulins and methotrexate was started. In addition, an appropriate therapy for the heart failure was started (betablocker, diuretics, ACE inhibitor).
At 2.5 years of life, they started a compassionate use/EAP therapy that combined a new ERT (cipaglucosidase 30 mg/kg/week) with an enzyme stabilizer (miglustat 115 mg) (ATB200-15 Program, Amicus Therapeutics), with clinical benefit.

A short description of data set [5]: Miglustat plasma pharmacokinetics. In kind it is in vivo, human. The note with it: 130 mg to 260 mg. The method, then:
At the recommended 260 mg dose, the mean Cmax was approximately 3 mcg/mL and the mean AUC was approximately 25 mcg*hr/mL. The mean time to reach the maximum concentration ranged from 2 hours to 3 hours.

A short description of another data set: clinical. The settings on record: human, in vivo. The method, then:
At 10Y7M of age, the blood of the patient was collected to gather pharmacokinetic (PK) data for their treatment that included weekly administration of 20 mg/kg ATB200 and 130 mg AT2221.
Blood sampling of the patient was conducted to gather pharmacokinetic (PK) data for their treatment that included administration of 25 mg/kg ATB200 and 195 mg AT2221 biweekly.
At 12Y5M of age, the patient has been receiving ATB200 (20 mg/kg) and AT2221 (195 mg) biweekly for 1 year. […] At this time, the PK levels of both ATB200 and AT2221 were taken from the patient.

Setting [6] is: age ~1 week, Myozyme double dose 40 mg/kg q2wk.
Setting [7] is: after new immunomodulation cycle, on Myozyme.
Setting [8] is: worsening with high antibody titer, on Myozyme.

As to “MYOZYME®: conventional rhGAA product containing alglucosidase alfa”, the motor function entry in data set [1] (20 mg/kg/weekly) was “slight motor improvements”. Further, the response to therapy result in data set [1] (fourfold dose of ERT (40 mg/kg/weekly)) is reported as “very poor”. Besides, the “rhGAA that binds to the CIMPR (contains M6P)” value with CIMPR (fraction of total enzyme by GAA activity) is listed as 27%. Also, in the data set with CIMPR (fraction of total enzyme by GAA activity (FIG. 9A, 9B)), the “rhGAA that did not bind to the CIMPR” value was 73%. Besides, the CK with pediatric IOPD patient [2] (Myozyme 50 mg/kg q2wk) is on record as 2514-2722 U/L. Also, in the data set on pediatric IOPD patient [2] (Myozyme 60 mg/kg q2wk), the CK was 3143-3625 U/L. In the data set on pediatric IOPD patient [2] (Myozyme 60 mg/kg q2wk, 2 D), this molecule displayed an LVEF of 70.5% and an LVMI of 26.2 g/m^2. Besides, in the data set with pediatric IOPD patient [2] (Myozyme 30 then 40 mg/kg qwk), the CK was 2603 U/L and the Pro-BNP was 401.5 pg/mL. In the data set on pediatric IOPD patient [2] (setting [6]), this molecule showed a CK of 880 U/L, a Glc4 of 41.88 mmol/mol CRE and a Pro-BNP of 10169 pg/mL. In the data set with pediatric IOPD patient [2] (age ~1 week, Myozyme double dose 40 mg/kg q2wk, M-mode), this molecule displayed an LVMI of 147 g/m^2. Also, in the data set with pediatric IOPD patient [2] (change to ATB200 20 mg/kg q2w), the CK is listed as 1444 U/L. In the data set with pediatric IOPD patient [2] (human, in vivo), the “reactions on ERT” value is “skin rash, dyspnea, a cough and a pale-like complexion”. In addition, the “lysosome size and autophagic buildup compared to vehicle-treated mice” value in data set [3] is on record as “did not show any significant difference”. Besides, in the data set on pediatric IOPD patient [4] (setting [7]), the CPK is 4,728 U/L, the EF was determined as 48%, the LVMI was 118 g/m2 and the uGlc4 amounted to 35 mmol/mol crea. In the data set with pediatric IOPD patient [4] (on Myozyme), this molecule had a CPK of 1877 u/L, an EF of 50% and a uGlc4 of 20.2 mmol/mol crea. Also, in the data set with pediatric IOPD patient [4] (on Myozyme since day 5), the LVMI was 116.6 g/m2. Besides, in the data set on pediatric IOPD patient [4] (setting [8]), the BNP came to 237 U/L; the EF is listed as 50%; the LVMI turned out to be 229 g/m2; the “serum CPK, maximum” value is reported as 6,795 U/L. Further, the “uGlc4, maximum” value in the data set on pediatric IOPD patient [4] (setting [8]) worked out at 50 mmol/mol creatinine.

Turning to `CCCCN1C[C@H](O)[C@@H](O)[C@H](O)[C@H]1CO` [miglustat, (2R,3R,4R,5S)-1-butyl-2-(hydroxymethyl)piperidine-3,4,5-triol, reference compound], the “dose proportionality of AUC and Cmax” value in data set [5] is on record as “linear pharmacokinetics”. Further, in “clinical”, the “AUC relative to adult percentiles” value is “below the adult 10th percentile” and the “Cmax relative to adult percentiles” value is recorded as “within the adult 10th-90th percentile”. Also, the AUC in the data set “clinical” (AT2221 AUC) was in the range of 16100 to 24600 ng·h/mL. For the same molecule, the Cmax in “clinical” (AT2221 Cmax) fell in the range of 1800 to 3130 ng/mL.

By AUC is commonly meant the area under the concentration-time curve, a measure of exposure. The low end stands for low exposure, the high end for high exposure. Broadly, the Cmax is the peak of the concentration-time curve.
